This note sets out measurements from US20070066608A1, “Novel indole derivatives with an improved antipsychotic activity” (priority 2003, published 2007).

The target in assay [1] is T1, Human Dopamine D2L receptor (Homo sapiens, UniProt P14416).
T1 construct: expressed in transfected cells; host or cells: CHO cells
Nature of the assay: Radioligand binding experiment for dopamine D2 receptor (hD2), [3H]Spiperone. To be noted: membranes of D2L receptor-transfected CHO cells, read-out: pIC50 D2 (converted). As for the experimental part: (§1) The interaction of the compounds of Formula (I) with dopamine-receptors, h5HT-transporter and h5HT1A receptor was assessed in in vitro radioligand binding experiments. In general, a low concentration of a radioligand with a high binding affinity for a particular receptor or transporter is incubated with a sample of a tissue preparation enriched in a particular receptor or transporter or with a preparation of cells expressing cloned human receptors in a buffered medium. During the incubation, the radioligand binds to the receptor or transporter. When equilibrium of binding is reached, the receptor bound radioactivity is separated from the non-bound radioactivity, and the receptor- or transporter-bound activity is counted The interaction of the test compounds with the receptor is assessed in competition binding experiments. Various concentrations of the test compound are added to the incubation mixture containing the receptor- or transporter preparation and the radioligand. The test compound in proportion to its binding affinity and its concentration inhibits binding of the radioligand.
Human Dopamine D2L receptor-transfected CHO cells were collected by scraping into ice-cold Tris-HCl buffer ([…], pH 7.4). The suspension was centrifuged (23 500×g, 10 min, 4° C.) and pellets stored at −70° C. until require. They were then thawed and briefly homogenised using an Ultra-Turrax T25 homogeniser prior to dilution to an appropriate protein concentration optimised for specific and non-specific binding. [^3H]Spiperone (NEN, specific activity˜70 Ci/mmol) was diluted in Tris-HCl assay buffer containing NaCl, CaCl2, MgCl2, KCI (50, 120, 2, 1, and 5 mM respectively, adjusted to pH 7.7 with HCl) at a concentration of 2 nmol/L. Prepared radioligand (50 μl) was then incubated (30 min, 37° C.) with membrane preparations pre-diluted to an appropriate protein concentration (400 μl), and with 50 μl of either the 10% DMSO control, Butaclamol (10^−6 mol/L final concentration), or compound of interest. Membrane-bound activity was detected by filtration through a Packard Filtermate harvester onto Unifilterplates, washing with ice-old Tris-HCl buffer (50 mM; pH8.0; 3×4 ml). Filters were allowed to dry before adding scintillation fluid and counting in a Topcount scintillation counter. % Specific bound and competition binding curves were calculated using S-Plus software (Insightful).

The target in assay [2] is T2, Human Dopamine D3 receptor (Homo sapiens, UniProt P35462).
T2 construct: expressed in transfected cells; host or cells: CHO cells
The assay can be described thus: Radioligand binding experiment for dopamine D3 receptor (hD3), [125I]Iodosulpride. To be noted: membranes of D3 receptor-transfected CHO cells, read-out: pIC50 D3 (converted). As for the experimental part:
as §1
Human Dopamine D3 receptor-transfected CHO cells were collected by scraping into ice-cold Tris-HCl buffer (50 mM, pH 7.4). The suspension was centrifuged (23 500×g, 10 min, 4° C.) and pellets stored at −70° C. until required. They were then thawed and briefly homogenised using an Ultra-Turrax T25 homogeniser prior to dilution to an appropriate protein concentration optimised for specific and non-specific binding. [^125]Iodosulpride (Amersham, specific activity 2000 Ci/mmol) was diluted in Tris-HCl assay buffer containing NaCl, CaCl2, MgCl2, KCl and BSA (50, 120, 2, 1, 5 mM, 0.1% respectively, adjusted to pH 7.7 with HCl) at a concentration of 2 nmol/L. Prepared radioligand (20 μl) was incubated (60 min, RT) and with 20 μl of either the 10% DMSO control, Risperidone (10^−6 mol/L final concentration), or compound of interest, then with membrane preparations (80 μl). Overnight incubation followed after addition of WGA-coated PVT SPA beads (250 μl; Amersham) and membrane-bound counts measured in a Wallac Microbeta. % Specific bound and competition binding curves were calculated using S-Plus software (Insightful).

T2 sequence (P35462 whole entry): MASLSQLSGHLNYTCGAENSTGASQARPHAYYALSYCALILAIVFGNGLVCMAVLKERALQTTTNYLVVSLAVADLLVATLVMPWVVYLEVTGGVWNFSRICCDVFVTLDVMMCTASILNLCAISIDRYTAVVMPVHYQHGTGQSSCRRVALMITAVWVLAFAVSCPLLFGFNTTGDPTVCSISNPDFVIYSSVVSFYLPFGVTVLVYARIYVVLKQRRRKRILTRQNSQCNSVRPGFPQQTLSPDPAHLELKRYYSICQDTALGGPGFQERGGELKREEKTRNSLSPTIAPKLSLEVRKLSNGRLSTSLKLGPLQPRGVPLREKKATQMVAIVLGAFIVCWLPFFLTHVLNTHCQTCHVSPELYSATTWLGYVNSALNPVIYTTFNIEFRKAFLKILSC
T1 sequence (P14416 whole entry): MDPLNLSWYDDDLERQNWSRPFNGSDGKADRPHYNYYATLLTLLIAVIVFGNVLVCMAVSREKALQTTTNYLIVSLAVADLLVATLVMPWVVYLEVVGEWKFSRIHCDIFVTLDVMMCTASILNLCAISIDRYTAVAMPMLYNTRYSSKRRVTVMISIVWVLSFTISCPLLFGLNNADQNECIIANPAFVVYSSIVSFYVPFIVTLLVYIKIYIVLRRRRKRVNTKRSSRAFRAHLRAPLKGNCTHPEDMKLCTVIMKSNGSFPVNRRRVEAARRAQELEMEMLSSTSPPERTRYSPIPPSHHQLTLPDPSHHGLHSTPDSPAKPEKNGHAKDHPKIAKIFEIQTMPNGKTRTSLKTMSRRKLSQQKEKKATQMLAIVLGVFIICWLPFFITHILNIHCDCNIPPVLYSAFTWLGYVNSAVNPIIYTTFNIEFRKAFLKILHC

For `Fc1ccc2[nH]cc(C3=CCN(CC4Oc5cccnc5O4)CC3)c2c1` (centres unmarked) [Compound 7], the IC50 in assay [1] was 0.251 µM; in assay [2], 0.0158 µM.
